From patent US12220390B2, “Mirdametinib treatment” (SpringWorks Therapeutics, Inc., priority 2022, dated 2025) come the findings set out here.

The data set relates to patients ≥2 and <25 years with brain cancer. The data set is described as follows: Phase I/II trial of single agent mirdametinib in children, adolescents and young adults with brain cancer. It counts as in vivo, human. The procedure:
A multi-arm phase I/II trial of mirdametinib is to be conducted in patients ≥2 and <25 years with brain cancer. Phase I requires participants have no prior exposure to MEK inhibitors and recurrent/progressive disease with biopsy-proven evidence of MAPK pathway activation. Three escalating dose levels (2 mg/m^2/dose BID, 2.5 mg/m^2/dose BID and 3 mg/m^2/dose BID) are planned using a rolling 6 design. The median age enrolled in the study is 10 years old (3-21).

Setting [1] is: patients with brain cancer, 2-3 mg/m^2/dose BID.

In the case of `O=C(NOC[C@H](O)CO)c1ccc(F)c(F)c1Nc1ccc(I)cc1F` (single isomer, unassigned) [mirdametinib], the dose-limiting toxicities entry (all three dose levels (2, 2.5 and 3 mg/m^2/dose BID), continuous dosing, patients with brain cancer) is on record as “No dose-limiting toxicities”. Also, the tolerability entry (dosed continuously in patients with brain cancer) is recorded as “well-tolerated”. For the same compound, under setting [1], the “MEK related retinopathy or cardiopathy” value is on record as “No MEK related retinopathy or cardiopathy is observed” and the disease progressions result was “No disease progressions”.
